Source: patent US20260256909A1, “COMBINATION OF A BTN3A ACTIVATING ANTIBODY, A BCL2 INHIBITOR AND HYPOMETHYLATING AGENT FOR USE IN TREATING CANCER” (Imcheck Therapeutics, priority 2022, published 2026)

Legend:
KG1a AML cells = experiment: Killing of KG1a AML cells in co-culture with HD-PBMC (flow cytometry); format: cell-based, human; conditions: for effect on Vγ9Vδ2 T cell killing activity compared to hIgG1S conditions: upon activation with ICT01, single agent, KG1a co-culture with HD-PBMC
Method: A) Sensitivity of KG1a cell line to Venetoclax, 5-Azacytidine or the combination. […] N=2 experiments. B) Mean±SEM relative number of Live KG1a AML cells monitored by flow cytometry after 3 days of co-culture with HD-PBMC (E:T ratio 25:1) treated with ICT01 (black) or its isotype control (hIgG1S, light grey) at 0.1 or 1 μg/mL. N=6, each dot represents one healthy donor. C) Schematic representation of treatment schedule for killing of KG1a AML cells by HD-PBMC. D) Relative number of Live KG1a AML cells (Mean±SEM) (left) and Frequency of Live KG1a AML cell relative to no Venetoclax or 5-Azacytidine treatment (Mean±SEM) (right) after 3 days of co-culture with HD-PBMC in presence of ICT01 (black) or its isotype control (hIgG1S, light grey) and treatment with Venetoclax, 5-Azacytidine or the combination. N=6, each dot represents one healthy donor, * p<0.05, Wilcoxon test.
KG1a cells were co-cultured with HD-PBMC at ratio 5:1 in presence of m20.1 or isotype control (0.1 μg/mL). After 6 hrs, indicated concentrations of Venetoclax, 5-Azacytidine or the combination were added to the culture. Relative number of live KG1a was monitored after 48 hrs by flow cytometry. […] N=6, each dot represents one healthy donor, * p<0.05, ** p<0.01, *** p<0.001, **** p<0.0001, 2 way ANOVA.
KG1a or MOLM14 AML cell lines were co-cultured with HD-PBMC at ratio 5:1 in presence of ICT01 or isotype control (0.1 μg/mL). After 6 hrs, indicated concentrations of ABT-737, Navitoclax or MIK665 were added to the culture. A) Relative numbers of live KG1a cells (Mean±SEM) after 2 days of co-culture with HD-PBMC in presence of ICT01 (black) or its isotype control hIgG1S (light grey) and treatment with indicated concentration of ABT-737. B) Relative numbers of live KG1a cells (Mean±SEM) after 2 days of co-culture with HD-PBMC in presence of ICT01 (black) or its isotype control hIgG1S (light grey) and treatment with indicated concentration of Navitoclax. C) Relative numbers of live MOLM14 cells (Mean±SEM) after 2 days of co-culture with HD-PBMC in presence of ICT01 (black) or its isotype control hIgG1S (light grey) and treatment with indicated concentration of MIK665. N=6 HD, each dot represents one healthy donor, * p<0.05, 2 way ANOVA.
The effect of Venetoclax and 5-Azacytidine on anti-BTN3A antibodies-induced killing of AML cell lines by Vγ9Vδ2 T cells was assessed by measuring the relative number of surviving target cells in a HD-PBMC-AML cell co-culture using flow cytometry.
Then, KG1a AML cells were stained with CellTrace CFSE Proliferation dye (ThermoFisher) to allow for specific detection by flow cytometry, counted, put into a co-culture with thawed HD-PBMC and treated with the anti-BTN3A mAbs ICT01 or m20.1 or their respective isotype controls (hIgG1S or mIgG1) in PBMC medium (RPMI 1640 Medium supplemented with 10% Fetal Bovine Serum (FBS) and 1 mM Sodium Pyruvate). On day one of culture, increasing concentrations of Venetoclax (0-0.4 μM), 5-Azacytidine (0-0.4 μM) or the combination were added. Cells were harvested on day 3 of co-culture, centrifuged at 1800 rpm for 5 minutes and then incubated 10 minutes at room temperature (RT) with 25 μl of FcR blocking reagent (Miltenyi Biotec) before adding 25 μL of the following antibody mix prepared in PBS+2% FBS+2 mM EDTA (FACS buffer): anti-CD56-BV421, CD19-BV421, CD14-BV785, Tyb-PE and CD3-AF700 antibodies for the identification of immune subsets, and a viability marker (LIVE/DEAD™ Fixable Dead Cell Stain) was added to distinguish live and dead cells. Cells were incubated 20 minutes at room temperature, washed once in FACS buffer and once in AnnexinV staining buffer. An AnnexinV-APC probe mixed with CountBright Absolute Counting Beads (Invitrogen) was added to determine apoptosis and relative cell numbers, followed by 15 minutes incubation at RT before flow cytometry analysis. […]

Vγ9Vδ2 T cells = experiment: Expression of activating and inhibitory receptors by Vγ9Vδ2 T cells in HD-PBMC; format: cell-based, human; conditions: for effect on ICT01-induced expression of activating and inhibitory receptors on Vγ9Vδ2 T cells: day 5, Venetoclax 0-0.1 μM, 5-Azacytidine 0-0.4 μM
Method: Vγ9Vδ2 T cell functions are tightly regulated by activating (NKG2D and DNAM-1) and inhibitory receptors (PD-1, NKG2A, BTLA, TIM3). To assess the impact of Venetoclax and 5-Azacytidine treatment on the expression of these receptors by Vγ9Vδ2 T cells, frozen human PBMC from healthy donors (HD, n=6) were thawed and treated with ICT01 or its isotype control (hIgG1S) used at 1 μg/mL in the presence or absence of increasing concentrations of Venetoclax (0-0.1 μM), 5-Azacytidine (0-0.4 μM) or the combination in PBMC medium (RPMI 1640 Medium supplemented with 10% FBS, 1% Penicillin/Streptomycin, 1 mM Sodium Pyruvate and 50 IU/mL IL2). Cells were harvested on day 5, centrifuged at 1800 rpm for 5 minutes and then incubated 10 minutes at RT with 25 μl of FcR blocking reagent (Miltenyi Biotec) before adding 25 μL of the following antibody mix prepared in PBS+2% FBS+2 mM EDTA (FACS buffer): anti-CD4-BUV395, Vδ2-PE, CD3-PE-CF594 and CD8-A700 antibodies for the identification of immune subsets, anti-BTLA-BV421, PD1-BV650, DNAM-1-BV785, TIM3-BB515, NKG2A-PE-Vio770 and NKG2D-APC antibodies for the detection of inhibitory and activating receptors, and a viability marker (LIVE/DEAD™ Fixable Dead Cell Stain) was added to distinguish live from dead cells. Cells were incubated 20 minutes at 4° C. and washed 2 times in FACS buffer before flow cytometry analysis.

Row | Compound | effect on KG1a survival (KG1a AML cells; hIgG1S conditions, co-culture with HD-PBMC, day 3) | effect on KG1a survival (KG1a AML cells; mIgG1 conditions, HD-PBMC ratio 5:1, 48 hrs) | effect on Vγ9Vδ2 T cell killing activity compared to hIgG1S conditions (KG1a AML cells) | effect on ICT01-induced expression of activating and inhibitory receptors on Vγ9Vδ2 T cells (Vγ9Vδ2 T cells) | reduction of KG1a relative numbers (KG1a AML cells; hIgG1S-treatment conditions, highest concentration, co-culture with HD-PBMC, day 3) | reduction of KG1a relative numbers (KG1a AML cells; mIgG1 conditions, Venetoclax 0.1 μM alone or combined with 0.4 μM 5-Azacytidine, HD-PBMC ratio 5:1, 48 hrs) [%] | average reduction of live KG1a cell numbers compared to hIgG1S conditions (KG1a AML cells; 3 days co-culture with HD-PBMC (E:T ratio 25:1), large variability within PBMC donors) | KG1a cell death as compared to control condition (KG1a AML cells; ICT01 0.1 μg/mL, HD-PBMC ratio 5:1, 2 days (FIG. 8a)) | expression of activating (NKG2D, DNAM-1) and inhibitory receptors (PD-1, NKG2A, BTLA, TIM3) on Vγ9Vδ2 T cells (Vγ9Vδ2 T cells; day 5, ICT01 1 μg/mL, 50 IU/mL IL2)
1 | Nc1ncn([C@@H]2O[C@H](CO)[C@@H](O)[C@H]2O)c(=O)n1 [5-Azacytidine, 4-amino-1-[(2R,3R,4S,5R)3,4-dihydroxy-5-(hydroxymethyl)oxolan-2-yl]-1,3,5-triazin-2-one] | no effect | no effect | slight increasing effects | unaffected | – | – | – | – | –
2 | CC1(C)CCC(CN2CCN(c3ccc(C(=O)NS(=O)(=O)c4ccc(NCC5CCOCC5)c([N+](=O)[O-])c4)c(Oc4cnc5[nH]ccc5c4)c3)CC2)=C(c2ccc(Cl)cc2)C1 [Venetoclax, 4-[4-[[2-(4-chlorophenyl)-4,4-dimethylcyclohexen-1-yl]methyl]piperazin-1-yl]-N-[3-nitro-4-(oxan-4-ylmethylamino)phenyl]sulfonyl-2-(1H-pyrrolo[2,3-b]pyridin-5-yloxy)benzamide] | – | – | slight increasing effects | unaffected | ~ 28% | 41 | – | – | –
3 | ICT01: humanized BTN3A activating antibody of mAb 7.2, heavy chain SEQ ID NO: 4, light chain SEQ ID NO: 6, silent IgG1 L247F/L248E/P350S | – | – | – | – | – | – | ~ 20% | ~ 21% | increased expression
